Publication PMC7689089, “Regorafenib combined with PD1 blockade increases CD8 T-cell infiltration by inducing CXCL10 expression in hepatocellular carcinoma” (Journal for Immunotherapy of Cancer, 2020)

Tested on: CXCL10
Assay: CXCL10/CXCR3 expression in RIL-175 tumor tissue (RNA-seq, ELISA, RNA-Scope ISH, western blot)
Assay type: in vivo, mouse
Settings: regorafenib alone at 10 mg/kg and 20 mg/kg; 6 hours after treatment
Method: The RNA-Scope assay was performed according to manufacturer’s instructions.[32] Briefly, formaldehyde-fixed and paraffin-embedded human and mouse HCC tissue blocks were cut in 5 µm sections, pretreated for 30 min, following digestion and hybridization at 40°C in a HybEZ oven with both dual labeling probes antimurine CXCR3 probe (Mm-CXCR3; 402511-C2) and CXCL10 (Mm-CXCL10; 408921) or human CXCL10 (Hs-CXCL10; 311851), all from Advanced Cell Diagnostics. Counterstaining was performed using hematoxylin for 10 s.
(A) Changes induced by combination of regorafenib (10 mg/kg) with anti-PD1 antibody in immune-related pathways from the gene set enrichment analysis (GSEA) using curated gene sets in RIL-175 HCC model (see also online supplemental dataset S1 and figure S2E). (B, C) Changes induced by combination of regorafenib (10 mg/kg) with anti-PD1 antibody in STAT3 and STAT1 activity (B), showing an increased ratio of phosphorylated (p)-STAT1/p-STAT3 (normalized to total STAT1 and STAT3, respectively) by western blot analysis of whole RIL-175 HCC tissue (C) (n=4 mice). […] (J, K) Combination therapy increases CXCL10 protein expression in whole RIL-175 tumor tissue 6 hours and 12 hours after in vivo when regorafenib treatment was used at doses of 10 mg/kg (R10) and 20 mg/kg (R20) (n=3) by western blot analysis (J); quantitative data of CXCL10/β-actin ratios are shown in (K). […]

`CNC(=O)c1cc(Oc2ccc(NC(=O)Nc3ccc(Cl)c(C(F)(F)F)c3)c(F)c2)ccn1` [regorafenib] was tested, and the “CXCL10 protein in whole tumor tissue lysate (western blot)” value was “increased protein levels”.
